Assay results taken from patent publication US9629362B1, “Methods for killing insects using methyl benzoate” (The United States of America, as represented by the …, priority 2016, dated 2017).
Entries after “also recorded” stand apart in the source; their conditions may differ. Read-outs that look alike come from different tables or passages of the source. Marks after values point to notes of the source that are not given here.

Columns and labels:
[1] = by ingestion and inhalation; cited from earlier work
H. halys nymphs = experiment: Toxicity of MB against H. halys nymphs (treated filter paper in glass vial); format: in vivo, Halyomorpha halys; conditions: mortality after 24 hr
Protocol: Toxicity of MB against H. halys nymphs: The bioassays were carried out in glass vials (20 mL). Filter paper was cut into round shaped pieces (2.4 cm diameter). 50 μL MB acetone solution with different concentrations was loaded onto the filter paper evenly, and the filter paper was dried for 1 min and then put into the bottom of the vial. A small piece of green bean was put on the filter paper in the vial as food source. Different stages of H. halys nymphs were introduced into the vial and capped with a cotton ball. For each stage, 30 nymphs were used for each amount of MB loading. For the nymphs of the first instar, 10 nymphs were put into 1 vial. For the nymphs of the second and third instar, 5 nymphs were put into 1 vial. For the nymphs of the fourth instar, 3 nymphs were put into 1 vial. For the nymphs of the fifth instar, 2 nymphs were put into 1 vial. The mortality was assessed after 24 hr.
(§1) Data analysis: Comparisons of different treatments were analyzed using one-way ANOVA followed by Ryan-Eibot-Gabriel-Welsch F test (SPSS 10.0 for Windows (George, D., and P. Mallery, SPSS for Windows step by step: A simple guide and reference, 4th edition, Allyn & Bacon, 2002)) for significance at α=0.05.

H. halys eggs = format: in vivo
Protocol: (§2) Ovicidal toxicity of MB and commercial pesticides: The aqueous solutions of MB with designated concentrations and commercially available pesticides with different concentrations of active ingredient (AI) were separately stored in glass spray bottles. The eggs (10 for H. halys and M. sexta, 100 for P. xylostella) were laid on filter papers in Petri dishes. Different aqueous solutions were sprayed on the surfaces of different eggs three times (˜0.5 mL) to completely cover the treatment areas. Then Petri dishes were covered with lids and maintained in a fume hood for 10 days. The Petri dishes were then inspected for presence of nymph/larvae development or numbers of unhatched eggs.
as §1

P. xylostella eggs = format: in vivo
Protocol: as §2, §1

M. sexta eggs = format: in vivo
Protocol: as §2, §1

D. suzukii = experiment: Oviposition deterrent / adult toxicity of MB and other VOCs on pre-treated blueberries; format: in vivo, Drosophila suzukii; conditions: for Activity against adult D. suzukii: 2 days exposure to pre-treated blueberries; for Toxicity / mortality against adult D. suzukii: blueberries soaked 2 h, 48 h (2 days) exposure; for Adults emerged from pre-treated berries / Pupae developed from pre-treated berries compared with blank control: further 10 days incubation at room temperature
Protocol: Mortality assessed after 48 hrs exposure to pre-treated blueberries (60 berries/treatment, 1% solution soaking for 2 hr) as described below.
Numbers assessed after 10 days incubation at room temperature as described below.
Mortality assessed after 48 hrs exposure to pre-treated blueberries (60 berries/treatment, soaking for 2 hr) as described below.
Numbers assessed after 10 days incubation at room temperature.
(§3) Laboratory bioassay: Bioassays were conducted in USDA Beltsville laboratory at 25° C., 60% RH, under a 16L:8D photoperiod with ˜1700 lux light illuminance. A fume hood was maintained at same conditions with face velocity at 129 FPM. The plastic cups (32 oz, diameter 4.5 inches, deep 5 inches, or 16 oz, diameter 4.5 inches, deep 2.5 inches) were purchased from papermart.com (CA). The cover was cut into a 80 mm diameter hole and glued with an 85 mm diameter Nylon screen mesh (81×81 per inch) mesh size, BioQuip, CA). The polystyrene vials (height 95 mm, diameter 28.5 mm) and plugs were obtained from Fisher Scientific (Pittsburg, Pa.). The plastic cage (30×30×30 cm) was purchased from BugDorm (Rancho Dominguez, Calif.). Glass vial (20 mL), glass spray bottle (Amber glass with spray top, 30 mL), Petri dish (9 cm diameter), and Whatman filter paper (90 mm diameter) were obtained from VWR (Atlanta, Ga.). Deionized water (DI) containing 1% emulsifier (v/v), Tween 20 and Tween 80, at 1.1 ratio was used to make different VOCs water solutions and also used as blank control.
Evaluation of MB and other VOCs as oviposition deterrent against D. suzukii: To examine the oviposition deterrent property of MB and other essential oils against D. suzukii, 10 blueberries were separately dipped in 100 mL MB or other essential oil aqueous emulsions at 1% concentration for 2 h. Another 10 blueberries were dipped in 100 mL DI water for 2 h as control. The blueberries were separately placed on different Petri dishes and allowed to air dry for 2 h. After a Petri dish containing 10 treated blueberries was put into a plastic cup (32 oz), 10 mixed sex adults D. suzukii were subsequently introduced into each cup. Mortality of the D. suzukii was examined after 48 h. After removing all insects, the blueberries were maintained at room temperature for another 10 days. Present of adults were subsequently assessed and development of larvae and pupae was further inspected by dissection of the berries.

Drosophila suzukii = experiment: Impact of MB on D. suzukii control: pre-infested blueberries dipped in MB emulsion; format: in vivo; conditions: 1% MB, berries pre-infested 4 days, dipped 2 h, 10 days incubation at room temperature
Protocol: Assessment was conducted after 10 days incubation at room temperature.
as §3, with “Deionized water (DI) containing 1% emulsifier (v/v), Tween 20 and Tween 80, at 1.1 ratio was used to make different VOCs water solutions and also used as blank control.” left out
Impact of MB on D. suzukii control: To investigate the acute toxicity of MB against D. suzukii, 100 blueberries were placed in a plastic cage (30×30×30 cm) and infested by 100 mixed sex adult D. suzukii for 4 days. […] Present of adults were then subsequently assessed and development of larvae and pupae was further inspected by dissection of the berries. […]

## COC(=O)c1ccccc1 [MB, methyl benzoate]
[1]
  Human toxicity: low to moderate human toxicity
H. halys nymphs; 1st instar nymphs
  LC50 (95% CL): 1.03 (0.93-1.10) μL/via1
H. halys nymphs; 2nd instar nymphs
  LC50 (95% CL): 1.01 (0.86-1.12) μL/via1
H. halys nymphs; 3rd instar nymphs
  LC50 (95% CL): 1.23 (1.12-1.33) μL/via1
H. halys nymphs; 4th instar nymphs
  LC50 (95% CL): 2.39 (2.19-2.60) μL/via1
H. halys nymphs; 5th instar nymphs
  LC50 (95% CL): 1.77 (1.60-1.93) μL/via1
H. halys eggs; H. halys eggs
  Dosage (active ingredient) needed to reach 100% egg mortality: 0.0637 mg/cm^2
H. halys eggs; H. halys eggs, MB 0.025%, AI dose 0.0016 mg/cm^2, 10 days exposure
  Hatchability (%) (mean ± SE): 67 ± 8.8^d %
H. halys eggs; H. halys eggs, MB 0.05%, AI dose 0.0032 mg/cm^2, 10 days exposure
  Hatchability (%) (mean ± SE): 63 ± 17.6^cd %
H. halys eggs; H. halys eggs, MB 0.1%, AI dose 0.0064 mg/cm^2, 10 days exposure
  Hatchability (%) (mean ± SE): 60 ± 10.0^cd %
H. halys eggs; H. halys eggs, MB 0.25, AI dose 0.0159 mg/cm^2, 10 days exposure
  Hatchability (%) (mean ± SE): 43 ± 6.7^abcd %
H. halys eggs; H. halys eggs, MB 1%, AI dose 0.0637 mg/cm^2, 10 days exposure
  Hatchability (%) (mean ± SE): 0 ± 0.0^a %
H. halys eggs; H. halys eggs, MB 2%, AI dose 0.1273 mg/cm^2, 10 days exposure
  Hatchability (%) (mean ± SE): 0 ± 0.0^a %
H. halys eggs; H. halys eggs, MB 4%, AI dose 0.2546 mg/cm^2, 10 days exposure
  Hatchability (%) (mean ± SE): 0 ± 0.0^a %
H. halys eggs; H. halys eggs, MB at 0.0318 mg/cm^2 vs deltamethrin 0.0019, ζ-cypermethrin 0.0223, carbaryl 0.0080, β-cyfluthrin 0.1592, sulfur/pyrethrin 0.6525, organic essential oil product 0.3979 mg/cm^2
  Ovicidal potency compared with commercial pesticides, in words: as potent as
H. halys eggs; H. halys eggs, spray, 10 days
  LC95 (95% CL): 0.048 mg/cm^2
H. halys eggs; in vivo
  Hatchability (%) (mean ± SE): 17 ± 12.0^ab %
  LC50 (95% CL): 0.020 mg/cm^2
  Times more toxic than organic commercial product (2-phenethyl propionate, clover oil, rosemary oil, thyme oil): 12 times
  Times more toxic than sulfur & pyrethrin mixture: 20 times
  Times more toxic than the conventional pyrethroid (β-cyfluthrin): 5 times
P. xylostella eggs; P. xylostella eggs
  Dose needed to reach 100% egg mortality: 0.0064 mg/cm^2
P. xylostella eggs; P. xylostella eggs, MB 0.025%, AI dose 0.0016 mg/cm^2, 10 days exposure
  Hatchability (%) (mean ± SE): 38 ± 5.5^c %
P. xylostella eggs; P. xylostella eggs, MB 0.05%, AI dose 0.0032 mg/cm^2, 10 days exposure
  Hatchability (%) (mean ± SE): 13 ± 5.0^ab %
P. xylostella eggs; P. xylostella eggs, MB 0.1%, AI dose 0.0064 mg/cm^2, 10 days exposure
  Hatchability (%) (mean ± SE): 0 ± 0.3^a %
P. xylostella eggs; P. xylostella eggs, MB 0.25, AI dose 0.0159 mg/cm^2, 10 days exposure
  Hatchability (%) (mean ± SE): 1 ± 0.0^a %
P. xylostella eggs; P. xylostella eggs, MB 0.5%, AI dose 0.0318 mg/cm^2, 10 days exposure
  Hatchability (%) (mean ± SE): 0 ± 0.0^a %
P. xylostella eggs; P. xylostella eggs, MB 1%, AI dose 0.0637 mg/cm^2, 10 days exposure
  Hatchability (%) (mean ± SE): 0 ± 0.0^a %
P. xylostella eggs; P. xylostella eggs, MB at as low as 0.0032 mg/cm^2 dose
  Ovicidal activity in words: potent ovicidal activity
P. xylostella eggs; P. xylostella vs H. halys eggs
  Dose for 100% egg mortality of P. xylostella: times less than H. halys eggs needed: 10 times
P. xylostella eggs; P. xylostella vs M. sexta eggs
  Dose for 100% egg mortality of P. xylostella: times less than M. sexta eggs needed: 20 times
P. xylostella eggs; in vivo
  LC50 (95% CL): 0.001 mg/cm^2
  LC95 (95% CL): 0.005 mg/cm^2
M. sexta eggs; M. sexta eggs, MB 0.0637 mg/cm^2 vs bifenthrin & ζ-cypermethrin 0.0239 and essential oil product 0.3979 mg/cm^2
  Ovicidal toxicity compared with commercial pesticides, in words: significantly better
M. sexta eggs; M. sexta eggs, MB 0.025%, AI dose 0.0016 mg/cm^2, 10 days exposure
  Hatchability (%) (mean ± SE): 67 ± 8.8^c %
M. sexta eggs; M. sexta eggs, MB 0.05%, AI dose 0.0032 mg/cm^2, 10 days exposure
  Hatchability (%) (mean ± SE): 63 ± 8.8^c %
M. sexta eggs; M. sexta eggs, MB 0.1%, AI dose 0.0064 mg/cm^2, 10 days exposure
  Hatchability (%) (mean ± SE): 50 ± 17.3^c %
M. sexta eggs; M. sexta eggs, MB 0.25, AI dose 0.0159 mg/cm^2, 10 days exposure
  Hatchability (%) (mean ± SE): 40 ± 15.3^c %
M. sexta eggs; M. sexta eggs, MB 0.5%, AI dose 0.0318 mg/cm^2, 10 days exposure
  Hatchability (%) (mean ± SE): 20 ± 10.0^abc %
M. sexta eggs; M. sexta eggs, MB 1%, AI dose 0.0637 mg/cm^2, 10 days exposure
  Hatchability (%) (mean ± SE): 3 ± 3.35^ab %
M. sexta eggs; M. sexta eggs, MB 2%, AI dose 0.1273 mg/cm^2, 10 days exposure
  Hatchability (%) (mean ± SE): 0 ± 0.0^a %
M. sexta eggs; M. sexta eggs, MB 4%, AI dose 0.2546 mg/cm^2, 10 days exposure
  Hatchability (%) (mean ± SE): 0 ± 0.0^a %
M. sexta eggs; M. sexta eggs, spray, 10 days
  LC50 (95% CL): 0.015 mg/cm^2
  LC95 (95% CL): 0.060 mg/cm^2
M. sexta eggs; MB at 0.0637 mg/cm^2 dose
  Toxicity against M. sexta eggs in words: potent toxic agent
D. suzukii; 0.1% MB
  Activity against adult D. suzukii: no significant activity
D. suzukii; 0.5% MB
  Activity against adult D. suzukii: Little activity
D. suzukii; 1% solution
  Toxicity / mortality against adult D. suzukii: complete mortality; also recorded: potent activity
  Adults emerged from pre-treated berries: no adults emerged
  Pupae developed from pre-treated berries compared with blank control: significantly fewer pupae developed
D. suzukii; 1% solution, listed as methyl benzoate
  Toxicity / mortality against adult D. suzukii: complete mortality
D. suzukii; 5% MB
  Activity against adult D. suzukii: potent activity
  Adults emerged from pre-treated berries: no adults emerged
  Pupae developed from pre-treated berries compared with blank control: significantly fewer pupae developed
Drosophila suzukii
  Larvae/pupae development and adult emergence from pre-infested blueberries: no larvae and pupae developed or adult flies emerged
  Mortality of D. suzukii in pre-infested blueberries: complete mortality
